Laboratory results published in patent publication US5648366A, “Substituted pyrrolidin-3-yl-alkyl-piperidines” (Merrell Pharmaceuticals Inc., priority 1995, dated 1997).
pIC50: −log10 of the molar value. Where a name gives a salt, the structure may show the parent alone.

How the values were obtained:
NK1 and NK2 receptors = assay: Antagonism of capsaicin aerosol induced respiratory effects in conscious guinea pigs; type: in vivo, guinea pig; settings: for SRE NUMBER (coughs/gasps): 19 min capsaicin exposure; for SRE NUMBER (coughs/gasps) / DYSPNEA ONSET / MAXIMUM PRESSURE INCREASE: mean and SEM; for DYSPNEA INCIDENCE / DYSPNEA ONSET / MAXIMUM PRESSURE INCREASE: capsaicin aerosol 0.001%
Method: (§1) ANTAGONISM OF NKA AND CAPSAICIN INDUCED R[…] IN CONSCIOUS GUINEA PIGS
(§2) In vivo experiments were performed using male Duncan Hartley guinea pigs (250-350 g). Changes in conscious breathing patterns were monitored in four animals simultaneously using modified whole body plethysmography consisting of four small plexiglass boxes each connected to a reference box via Validyne DP 45-16 differential pressure transducers. The 4 boxes were equipped with an air supply line (also used for aerosol delivery) and an exhaust air line. Supply and exhaust lines were of the same length and narrow bore and arose from a common supply chamber and vented to a common exhaust chamber. This system was used to ensure that fluctuations in supply air and atmospheric pressure would remain in phase and be eliminated from the net signal by the differential pressure transducers. The analog pressure signals were digitalized via a Data Translation DT2821 A to D board. Data were collected at a rate of 100 samples/second/animal. Each cycle of pressure change was analyzed using the following parameters: rising and falling slope determined between minimum and maximum pressures, the ratio of rising over falling slope, and the magnitude of the change between initial trough pressure and peak cycle pressure. Using these values (and observing the animals) the pressure cycles were characterized into normal breaths, forced exhalations (apparent by abdominal heaving), significant respiratory events (SREs; usually coughs, less often sneezes or gasps which were characterized by transient, extremely large pressure increases which were distinguishable from noise) and movement/noise with a PCAT 286 running a System V UNIX operating system. Dyspnea was defined as a significant, sustained increase in plethysmograph pressure which was associated with an observable shift to labored breathing in the animal.
(§3) During the course of a typical experiment in which airway responsiveness to various bronchoconstricting agents was examined, aerosols were delivered for 19 min (0.33 ml/min) using a DeVilbiss Ultraneb 99 ultrasonic nebulizer and animals monitored during this time. Prior to nebulization, 1 min of resting breathing was collected to establish a baseline pressure. […] The vehicle for nebulization of all bronchoconstrictive agents was phosphate buffered saline (pH 7.4) which elicited no r[…] itself. Putative tachykinin antagonists were administered either (i.v.) 20 min prior to onset of aerosol exposure or orally 1 hour prior to onset (to guinea pigs after an overnight fast).
Capsaicin aerosol is known to promote release of the tachykinins SP and NKA from sensory nerves in the airways of guinea pigs which may then act upon NK1 and NK2 receptors, respectively to elicit r[…]. The ability of the compounds of Example 3A; and Example 20A to attenuate capsaicin-induced r[…], shown in Table 7a, is inferred from their ability to reduce incidence of dyspnea, prolong the onset of the response and reduce the number of coughs/gasps which occur during aerosol exposure.

NK1 receptor [1] = target: T1, NK1 receptor (Cavia porcellus, UniProt P30547); assay: Antagonism of SP-induced plasma protein extravasation in guinea pig trachea; type: in vivo; set-up: SP-induced plasma protein extravasation in guinea pig trachea; from tissue; host or cells: living guinea pig; trachea and primary bronchi; settings: i.v.; Example 3 versus Example 20A
T1 sequence (P30547 whole entry): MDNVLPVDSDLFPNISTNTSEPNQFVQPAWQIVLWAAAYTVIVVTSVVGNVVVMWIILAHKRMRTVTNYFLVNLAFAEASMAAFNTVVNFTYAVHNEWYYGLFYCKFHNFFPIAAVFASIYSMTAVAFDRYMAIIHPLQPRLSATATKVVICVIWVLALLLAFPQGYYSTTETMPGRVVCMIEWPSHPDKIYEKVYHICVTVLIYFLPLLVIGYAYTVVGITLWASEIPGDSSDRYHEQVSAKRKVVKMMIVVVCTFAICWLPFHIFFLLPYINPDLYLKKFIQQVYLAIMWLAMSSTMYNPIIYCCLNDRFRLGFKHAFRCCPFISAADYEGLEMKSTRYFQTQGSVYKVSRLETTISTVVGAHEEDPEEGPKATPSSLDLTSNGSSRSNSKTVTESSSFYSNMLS
Method: ANTAGONISM OF SP-INDUCED PLASMA PROTEIN EXTRAVASATION IN GUINEA PIG TRACHEA
SP-induced protein leakage through postcapillary venules was assessed by measuring Evans Blue dye accumulation in guinea pig trachea. Animals were anesthetized with pentobarbital then injected with Evans Blue dye (20 mg/kg, i.v., prepared in 0.9% NaCl solution). One minute after dye administration, the antagonist was administered (i.v.) followed by SP (0.3 nmole/kg, i.v.) and, after 5 min, excess dye removed from the circulation by transcardiac perfusion with 50 ml 0.9% NaCl solution. The trachea and primary bronchi were removed, blotted dry and weighed. Dye quantitation was performed spectrophotometrically ([…]) after extracting tissues in formamide for 24 hr at 50° C. Values were subtracted from background (dye only, no agonist). ED50 (dose of compound which inhibits SP-induced plasma protein extravasation by 50%) was calculated from linear regression analysis.

NK2 receptor = assay: Antagonism of NKA aerosol induced respiratory effects in conscious guinea pigs; type: in vivo, guinea pig; settings: 20 min prior to NKA aerosol (0.05%); for DYSPNEA ONSET: mean and SEM
Method: as §1, §2, §3
Table 6 illustrates the effects of the compounds of Example 3; Example 20A; and Example 5A on r[…] induced by NKA aerosol. […] These effects were dose dependent i.e. the higher the dose of compound, the greater attenuation of NKA-mediated effects.

NK1 receptor [2] = target: T1, NK1 receptor; assay: Antagonism of iodinated tachykinin (125I-substance P) binding to NK1 receptor in guinea pig lungs; set-up: tissue Keystone Biologicals, Cleveland, Ohio; host or cells: guinea pig lung membranes; settings: guinea pig lungs; mean of several experiments; read-out: NK-1 IC50
Method: ANTAGONISM OF IODINATED TACHYKININ BINDING TO NK1 AND NK2 RECEPTORS BY PUTATIVE ANTAGONISTS
The NK1 receptor affinity of proposed tachykinin antagonists was evaluated in guinea pig lungs (Keystone Biologicals, Cleveland, Ohio), affinity for the NK2 receptor evaluated in HSKR-1 cells (which are mouse 3T3 fibroblasts expressing the human jejunal NK2 receptor) and NK-3 receptor affinity was evaluated in freshly collected guinea pig cerebral cortex. Tissues or cells were homogenized with a Polytron in 15 volumes of 50 mM Tris-HCl buffer (pH 7.4, 4° C.) and centrifuged. The pellet was resuspended in Tris-HCl buffer and was centrifuged; the pellet was washed twice by resuspension. The final pellet was resuspended at a concentration of 40 mg/ml for tissues (guinea pig lung and cerebral cortex) and 20 mg/ml for cells in incubation buffer and remained at room temperature for at least 15 min prior to use. Receptor binding was initiated by addition of 250 ul membrane preparation in duplicate to 0.1 nM of the following radioligands: ^125 I-Bolton Hunter Lys-3 labeled substance P; ^125 iodohistidyl-1-neurokinin A; and ^125 I-Bolton Hunter labeled Lys-4 eledoisin in a final volume of 500 ul of buffer containing 50 mM Tris-HCl (pH 7.4 at room temperature), 0.1% bovine serum albumin, 2 mM MnCl2, 40 ug/ml bacitracin, 4 µg/ml leupeptin and chymostatin, 1 μM thiorphan and various doses of the putative tachykinin antagonists. Incubations were performed at room temperature for 90 min (NK1 receptor assays) or 2 hr (NK2 and NK3 receptor assays); binding was terminated by addition of 50 mM Tris-HCl buffer (pH 7.4, 4° C.) and filtration under vacuum through GF/B filters presoaked with 0.1% polyethyleneimine (NK1 receptor assays) or 0.5% bovine serum albumin (NK2 and NK3 receptor assays). Filter bound radioactivity was quantitated in a gamma counter. Nonspecific binding was defined as binding in the presence of 1 μM substance P, neurokinin A, or eledoisin. Specific binding was calculated by subtracting nonspecific binding from total binding. Competition of iodinated SP, NKA, or eledoisin binding by test compounds or standards was expressed as a percentage of this maximum competition. IC50 values (concentration required to inhibit 50% of receptor binding) were generated for each of the test compounds by nonlinear regression using an iterative curve fitting program (GraphPAD Inplot, San Diego, Calif.).

## COc1cc(C(=O)N2CCC(CCN3CCC(C(N)=O)(c4ccccc4)CC3)(c3ccc(Cl)c(Cl)c3)C2)cc(OC)c1OC (single isomer, unassigned; (+)) [Example 20A, (+)-1-[2-[3-(3,4-dichloro-phenyl)-1-(3,4,-trimethoxy-benzoyl)-pyrrolidin-3-yl]-ethyl]-4-phenyl-piperidine-4-carboxylic acid amide hydrochloride]
NK1 and NK2 receptors; 1 mg/kg intravenous
  SRE NUMBER (coughs/gasps): 9.9 ± 2.7
  DYSPNEA INCIDENCE: 77.8%
  DYSPNEA ONSET: 331 ± 22 s
  MAXIMUM PRESSURE INCREASE: 1.0 ± 0.1 mmH2 O
NK1 and NK2 receptors; 2.5 mg/kg intravenous
  SRE NUMBER (coughs/gasps): 8.3 ± 1.6
  DYSPNEA INCIDENCE: 100%
  DYSPNEA ONSET: 426 ± 57 s
  MAXIMUM PRESSURE INCREASE: 0.6 ± 0.1 mmH2 O
NK1 and NK2 receptors; 5 mg/kg intravenous
  SRE NUMBER (coughs/gasps): 4.4 ± 1.9
  DYSPNEA INCIDENCE: 44.4%
  DYSPNEA ONSET: 597 ± 186 s
  MAXIMUM PRESSURE INCREASE: 0.8 ± 0.06 mmH2 O
NK1 and NK2 receptors; 10 mg/kg intravenous
  SRE NUMBER (coughs/gasps): 3.3 ± 1.1
  DYSPNEA INCIDENCE: 55.6%
  DYSPNEA ONSET: 592 ± 71 s
  MAXIMUM PRESSURE INCREASE: 0.8 ± 0.1 mmH2 O
NK1 and NK2 receptors; guinea pig, in vivo
  inhibition of endogenous tachykinins released by capsaicin aerosol (in words): inhibit the endogenous tachykinins released by capsaicin aerosol
NK1 receptor [1]
  relative potency as NK-1 receptor antagonists (in words): equipotent
NK2 receptor; 1 mg/kg
  DYSPNEA INCIDENCE: 100%
  DYSPNEA ONSET: 451 ± 30 s
NK2 receptor; 5 mg/kg
  DYSPNEA INCIDENCE: 90%
  DYSPNEA ONSET: 706 ± 82 s
NK2 receptor; 10 mg/kg
  DYSPNEA INCIDENCE: 70%
  DYSPNEA ONSET: 829 ± 105 s

## NC(=O)C1(c2ccccc2)CCN(CCC2(c3ccc(Cl)c(Cl)c3)CCN(C(=O)c3ccccc3)C2)CC1 (stereo not drawn) [Example 1, 1-[2-[3-(3,4-dichloro-phenyl)-1-benzoyl-pyrrolidin-3-yl]-ethyl]-4-phenyl-piperidine-4-carboxylic acid amide]
NK1 receptor [2]
  pIC50: 6.57

## COc1ccccc1CC(=O)N1CCC(CCN2CCC(C(N)=O)(c3ccccc3)CC2)(c2ccc(Cl)c(Cl)c2)C1 (stereo not drawn) [Example 4, 1-(2-[3-(3,4-dichloro-phenyl)-1-[2-(2-methoxy-phenyl)-acetyl]-pyrrolidin-3-yl]-ethyl)-4-phenyl-piperidine-4-carboxylic acid amide]
NK1 receptor [2]
  pIC50: 7.32

## COc1ccccc1C(=O)N1CCC(CCN2CCC(C(N)=O)(c3ccccc3)CC2)(c2ccc(Cl)c(Cl)c2)C1 (stereo not drawn) [Example 13, 1-[2-[3-(3,4-dichloro-phenyl)-1-(2-methoxy-benzoyl)-pyrrolidin-3-yl]-ethyl]-4-phenyl-piperidine-4-carboxylic acid amide]
NK1 receptor [2]
  pIC50: 7.13
